Test results as given in PMC7794376 (Nature Communications, 2021).
Several values for one entry are separate records, joined by “and”; a condition that tells them apart may be missing. Equal entries are not always repeated.

Target: MtbCoaBC (Mycobacterium tuberculosis, UniProt P9WNZ1)
Test: biochemical
Assay type: biochemical
Conditions: for Activity % / Inhibition %: MtbCoaBC, replicates R1-R3; for Activity % / Activity % R1 / Activity % R3: relative to average CT; for reaction rate (slope of absorbance at 360 nm versus time), replicates: IC50 MtbCoaBC MlCoA; for reaction rate (slope of absorbance at 360 nm versus time), replicates / % inhibition, replicates / % remaining activity relative to uninhibited control, replicates: three replicates; for Activity % R1 / Inhibition % R1 / Activity R1: replicate R1; for Activity % R3 / Inhibition % R3 / Activity R3: replicate R3; for Activity R1 / Activity R3: slope of absorbance at 360 nm vs time (s)
[1] = MlCoA concentration 512 (log 2.70927; unit not given)
[2] = MlCoA concentration 1024 (log 3.0103; unit not given)

MtbCoaBC, sequence (P9WNZ1 whole entry): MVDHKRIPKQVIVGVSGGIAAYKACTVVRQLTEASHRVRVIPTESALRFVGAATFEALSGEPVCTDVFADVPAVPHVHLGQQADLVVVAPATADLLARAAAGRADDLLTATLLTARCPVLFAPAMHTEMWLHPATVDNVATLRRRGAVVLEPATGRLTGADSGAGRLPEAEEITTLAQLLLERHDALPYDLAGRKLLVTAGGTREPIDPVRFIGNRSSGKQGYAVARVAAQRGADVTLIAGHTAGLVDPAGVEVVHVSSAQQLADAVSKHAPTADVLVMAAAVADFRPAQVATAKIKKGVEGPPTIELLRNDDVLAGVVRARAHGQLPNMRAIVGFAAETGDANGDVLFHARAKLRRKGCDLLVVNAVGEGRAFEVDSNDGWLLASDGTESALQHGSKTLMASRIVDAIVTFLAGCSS

Compound: CC(C)(COP(=O)(O)OP(=O)(O)OC[C@H]1O[C@@H](n2cnc3c(N)ncnc32)[C@H](O)[C@@H]1OP(=O)(O)O)[C@@H](O)C(=O)NCCC(=O)NCCSC(=O)CC(=O)O [MlCoA, malonyl-CoA]
- Activity % (8 uM MlCoA): 92.1% and 91.15% and 93.21%
- Inhibition % (8 uM MlCoA): 8.85% and 6.79% and 7.90%
- Activity % (16 uM MlCoA): 76.14% and 76.7% and 75.8%
- Inhibition % (16 uM MlCoA): 23.30% and 24.20% and 23.86%
- Activity % (32 uM MlCoA): 63.4% and 64.14% and 61%
- Inhibition % (32 uM MlCoA): 35.86% and 39.00% and 36.60%
- Activity % (64 uM MlCoA): 43.31% and 44.56% and 41.61%
- Inhibition % (64 uM MlCoA): 55.44% and 58.39% and 56.69%
- Activity % (128 uM MlCoA): 23.32% and 26.33% and 20.47%
- Inhibition % (128 uM MlCoA): 73.67% and 79.53% and 76.68%
- Activity % (256 uM MlCoA): 12.52% and 10.98% and 14.64%
- Inhibition % (256 uM MlCoA): 89.02% and 85.36% and 87.48%
- IC50 (CoaB activity, […] CTP, […] PPA, 500 µM L-cysteine, average of three independent experiments ± SD, read-out: IC50 EnzChek MtbCoaBC): 48 ± 3 µM
- reaction rate (slope of absorbance at 360 nm versus time), replicates [1]: 0.000003647 and 0.000000222 and 0.000004502
- % inhibition, replicates [1]: 99.87 and 97.43 and 97.92
- % remaining activity relative to uninhibited control, replicates [1]: 2.081 and 0.1265 and 2.569
- reaction rate (slope of absorbance at 360 nm versus time), replicates [2]: 0.000003588 and 0.000000204 and 0.000003109
- % inhibition, replicates [2]: 99.88 and 98.23 and 97.95
- % remaining activity relative to uninhibited control, replicates [2]: 2.047 and 0.1162 and 1.774

Compound: succinyl-CoA [SucCoA]
- Activity % R1 (8 uM SucCoA): 96.11%
- Activity % R3 (8 uM SucCoA): 95.1%
- Inhibition % R1 (8 uM SucCoA): 3.89%
- Inhibition % R3 (8 uM SucCoA): 4.90%
- Activity R1 (8 uM SucCoA): 0.0001648
- Activity R3 (8 uM SucCoA): 0.0001631
- Activity % R1 (16 uM SucCoA): 73.57%
- Activity % R3 (16 uM SucCoA): 71.48%
- Inhibition % R1 (16 uM SucCoA): 26.43%
- Inhibition % R3 (16 uM SucCoA): 28.52%
- Activity R1 (16 uM SucCoA): 0.0001261
- Activity R3 (16 uM SucCoA): 0.0001226
- Activity % R1 (32 uM SucCoA): 58.32%
- Activity % R3 (32 uM SucCoA): 59.99%
- Inhibition % R1 (32 uM SucCoA): 41.68%
- Inhibition % R3 (32 uM SucCoA): 40.01%
- Activity R1 (32 uM SucCoA): 0.000099995
- Activity R3 (32 uM SucCoA): 0.0001029
- Activity % R1 (64 uM SucCoA): 30.98%
- Activity % R3 (64 uM SucCoA): 29.66%
- Inhibition % R1 (64 uM SucCoA): 69.02%
- Inhibition % R3 (64 uM SucCoA): 70.34%
- Activity R1 (64 uM SucCoA): 0.000053122
- Activity R3 (64 uM SucCoA): 0.000050860
- Activity % R1 (128 uM SucCoA): 16.56%
- Activity % R3 (128 uM SucCoA): 18.74%
- Inhibition % R1 (128 uM SucCoA): 83.44%
- Inhibition % R3 (128 uM SucCoA): 81.26%
- Activity R1 (128 uM SucCoA): 0.000028403
- Activity R3 (128 uM SucCoA): 0.000032131
- Activity % R1 (256 uM SucCoA): 6.801%
- Activity % R3 (256 uM SucCoA): 8.41%
- Inhibition % R1 (256 uM SucCoA): 93.20%
- Inhibition % R3 (256 uM SucCoA): 91.59%
- Activity R1 (256 uM SucCoA): 0.000011661
- Activity R3 (256 uM SucCoA): 0.000014421
